Key:
Angiogenesis in CAM = assay: Neovascularization on the CAM (Inhibition of Angiogenesis in CAM); assay type: in vivo, chicken; conditions: 30 ug
Experimental: In vivo neovascularization was examined by the method previously described by Auerbach et al. (J. Dev. Biol. 41:391-394 (1974)). Ten-day old chicken embryos were purchased from Spafas, Inc. (Preston, Conn.) and were incubated at 37° C. with 55% relative humidity. In the dark, with the aid of a candling lamp, a small hole was punctured in the shell concealing the air sac with a hypodermic needle. A second hole was punctured in the shell on the broadside of the egg directly over an […] portion of the embryonic membrane, as observed during candling. An artificial air sac was created beneath the second hole by applying gentle vacuum to the first hole using a small rubber squeeze bulb. The vacuum caused the chorioallantoic membrane (CAM) to separate from the shell. A window, approximately 1.0 cm^2, was cut in the shell over the dropped CAM with the use of a small crafts grinding wheel (Dremel, Division of Emerson Electric Company Racine, Wis.). The window allowed direct access to the underlying CAM. A pro-angiogenic agent was added to induce new blood vessel branches on the CAM of 10-day old embryos. […] Louis, Mo.) in a solution (95% ethanol and water). The disks were subsequently air dried under sterile conditions. The disks were then suspended in PBS (Phosphate Buffered Saline) and placed on growing CAMs. […] For inducing angiogenesis, sterile filter disks were saturated with bFGF (1 μg/ml) (Life Technologies, Gaithersburg, Md.) or other pro-angiogenesis factors and control disks were saturated with PBS without Calcium and Magnesium. Control disks were saturated with PBS without Calcium and Magnesium. Using sterile forceps one filter/CAM was placed from the window. The window was sealed with Highland brand transparent tape. After 24-48 hr, 10-25 ul of test agent was injected intravenously or added topically into the CAM membrane. Eight-Ten eggs/treatment group were used. CAM tissue directly beneath filter disk was harvested from embryos treated 48 hours prior with compound or control. Tissues were washed three times with PBS. Sections were placed in a 35-mm petri dish (Nalge Nunc, Rochester, N.Y.) and examined under a SV6 stereomicroscope (Karl Zeiss, Thornwood, N.Y.) at 50× magnification. […] Digital images of CAM sections from Petri dish were collected using a 3-CCD color video camera system (Toshiba America, New York, N.Y.). These images were analyzed using Image-Pro Plus software (Media Cybernetics, Silver Spring, Md.). The number of branch points in blood vessels within the circular region superimposed to the area of a filter disk was counted for each section. […] Tissues were washed three times with PBS. Sections were placed in a 35-mm Petri dish (Nalge Nunc; Rochester, N.Y.) and were examined under a SV6 stereomicroscope (Karl Zeiss; Thornwood, N.Y.) at 50× magnification. Digital images of CAM sections adjacent to filters were collected using a 3-CCD color video camera system (Toshiba America; New York, N.Y.) and analyzed with the Image-Pro Plus software (Media Cybernetics; Silver Spring, Md.). The number of vessel branch points contained in a circular region equal to the area of a filter disk was counted for each section. Percent inhibition data are expressed as the quotient of the experimental value minus the negative control value divided by the difference between the positive control value and the negative control value. One image was counted in each CAM preparation, and findings from eight CAM preparations were analyzed for each treatment condition. In addition, each experiment was performed three times. The resulting angiogenesis index is the mean ±SEM (Standard Error of Measurement) of new branch points in each set of treatment. Statistical analysis of blood vessel branching patterns are performed by 1-way analysis of variance (ANOVA) comparing experimental with corresponding control groups.

[1] = In vitro stability of OT-551 in rat plasma; assay type: in vitro ADME
Experimental: (§1) The active metabolite of OT-551 (Cyclopropanecarboxylic acid 1-hydroxy-2,2,6,6-tetramethyl-piperidin-4-yl ester) is TP-H. The objective of this analysis was to determine the in vitro half-life of OT-551 in rat, rabbit, dog, and human plasma under standardized incubation conditions.
(§2) OT-551 was incubated with pooled rat, rabbit, dog, and human plasma for various times under standardized incubation conditions. Pre-labeled tubes containing pooled plasma from rats, rabbits, dogs, and humans were pre-incubated in a shaking 37° C. water bath. A OT-551 solution was added to the tubes at a final concentration of 1000 ng/mL. Time zero samples (n=5) were immediately removed and transferred into tubes containing a stabilizer solution (DTPA, acetylcysteine and ascorbic acid), the LC/MS/MS assay internal standard and methanol. […] The tubes were vortexed, placed on ice, followed by centrifugation. One hundred-μL aliquots of the supernatant were transferred into HPLC sample vials. Additional tubes (n=5 at each time point) were incubated for 5, 10, 20, 30, 60, 120, and 240 minutes at 37° C. and thereafter processed. The amount of OT-551 and TP-H in each incubated sample was quantified using validated LC/MS/MS assays.

[2] = In vitro stability of OT-551 in rabbit plasma; assay type: in vitro ADME
Experimental: as §1, §2

[3] = Single-dose 10-minute intravenous infusion toxicokinetics of OT-551; assay type: in vivo, Sprague-Dawley rats; conditions: for Cmax of OT-551: Sprague-Dawley rats
Experimental: Blood for toxicokinetic evaluations was collected at pre-determined time points during and after the infusion. Plasma samples were analyzed for OT-551 and TP-H using validated LC/MS/MS assays. Descriptive toxicokinetic parameters were determined by standard model independent methods (Gilbaldi and Perrier, 1982) based on the plasma concentration-time data. […] The plasma concentrations were rounded to the nearest tenth of a ng/mL before the calculations. […] Nominal time points were used for all calculations. Since there was no apparent gender difference in the plasma concentrations of OT-551 and TP-H, the data for male and female rats at each sampling time point were pooled.

With `CC1(C)CC(OC(=O)C2CC2)CC(C)(C)N1O.Cl` [OT-551, 1-hydroxy-4-cyclopropanecarbonyloxy-2,2,6,6-tetramethylpiperidine hydrochloride] the “Inhibition of Angiogenesis in CAM, % Inhibition” value (Angiogenesis in CAM; listed as OT-551 HCl, hydrochloride) was 74 ± 4%, the inhibition in vivo at 0.03 mg (Angiogenesis in CAM; Gallus gallus) was 75.2 ± 9.7% and the “Concentrations (ng/mL) of OT-551 in Rat Plasma” value (shortened to “Concentrations … in Rat Plasma”) ([1]; incubation time 0 min) was 806.50 ± 86.77 ng/mL. The “Concentrations … in Rat Plasma” value ([1]; incubation time 5 min) was 770.32 ± 20.66 ng/mL, the “Concentrations … in Rat Plasma” value ([1]; incubation time 10 min) was 745.77 ± 15.50 ng/mL and the “Concentrations … in Rat Plasma” value ([1]; incubation time 20 min) was 682.88 ± 16.94 ng/mL. The “Concentrations … in Rat Plasma” value ([1]; incubation time 30 min) was 613.79 ± 25.84 ng/mL, the “Concentrations … in Rat Plasma” value ([1]; incubation time 60 min) was 480.48 ± 10.69 ng/mL and the “Concentrations … in Rat Plasma” value ([1]; incubation time 120 min) was 277.94 ± 5.55 ng/mL. The “Concentrations … in Rat Plasma” value ([1]; incubation time 240 min) was 80.70 ± 2.02 ng/mL, the “Concentrations (ng/mL) of OT-551 in Rabbit Plasma” value (shortened to “Concentrations … in Rabbit Plasma”) ([2]; incubation time 0 min) was 502.75 ± 74.66 ng/mL and the “Concentrations … in Rabbit Plasma” value ([2]; incubation time 5 min) was 14.56 ± 3.35 ng/mL. For the same compound, the “Concentrations … in Rabbit Plasma” value ([2]; incubation time 10 min) was 0.00 ± 0.00 ng/mL, the “Concentrations … in Rabbit Plasma” value ([2]; incubation time 20 min) was 0.00 ± 0.00 ng/mL and the “Concentrations … in Rabbit Plasma” value ([2]; incubation time 30 min) was 0.00 ± 0.00 ng/mL. The “Concentrations … in Rabbit Plasma” value ([2]; incubation time 60 min) was 0.00 ± 0.00 ng/mL, the “Concentrations … in Rabbit Plasma” value ([2]; incubation time 120 min) was 0.00 ± 0.00 ng/mL and the “Concentrations … in Rabbit Plasma” value ([2]; incubation time 240 min) was 0.00 ± 0.00 ng/mL. The “peak plasma concentration of OT-551 at the end of the infusion” value (from here on “peak plasma concentration”) ([3]; 10 mg/kg OT-551, 10-minute i.v. infusion) was 980.5 ng/mL, the “plasma level of OT-551 one hour after termination of the infusion” value ([3]; 10 mg/kg, assay limit <50 ng/mL) was “not quantifiable” and the “peak plasma concentration” value ([3]; 30 mg/kg OT-551, 10-minute i.v. infusion) was 3487.1 ng/mL. For the same compound, the “peak plasma concentration” value ([3]; 100 mg/kg OT-551, 10-minute i.v. infusion) was 29020.0 ng/mL, the “peak plasma concentration” value ([3]; 200 mg/kg OT-551, 10-minute i.v. infusion) was 89740.8 ng/mL and the “plasma levels of OT-551 four hours after termination of the infusion” value ([3]; 30 to 200 mg/kg, assay limit <50 ng/mL) was “not quantifiable”. For the same compound, the “Cmax of OT-551” value ([3]; 10-minute iv infusion of OT-551 10 mg/kg) was 980.5 ng/mL, the “Cmax of OT-551” value ([3]; 10-minute iv infusion of OT-551 30 mg/kg) was 3487.1 ng/mL and the “Cmax of OT-551” value ([3]; 10-minute iv infusion of OT-551 100 mg/kg) was 29020.0 ng/mL. The “Cmax of OT-551” value ([3]; 10-minute iv infusion of OT-551 200 mg/kg) was 89740.8 ng/mL and the “clearance of OT-551 in rats” value ([3]; rat, in vivo) was “very rapid”.

From patent publication US20080200405A1, “Drug Resistance Reversal In Neoplastic Disease” (priority 2007, published 2008)
